{
  "source": "patent US20130158070A1",
  "about": "“CONJUGATES OF POLYUNSATURATED FATTY ACIDS AND AMINE-CONTAINING COMPOUNDS AND USES THEREOF” (priority 2010, published 2013)",
  "key": {"[1]": {"test_system": "carrageenan-induced edema", "assay": "Carrageenan-induced paw edema in rats", "format": "in vivo, Sprague dawley rats", "settings": "carrageenan 1 mg/paw, versus Ibuprofen, FIG. 4", "protocol": "Exemplary conjugates were subjected to in vivo study of paw edema measurements in rats. Sprague dawley rats (150-200 grams) were used. Edema was induced by a single sub-plantar injection of carrageenan (1 mg/paw) into the left hind paw of the rat under light ether anesthesia. The total volume injected was 0.1 ml. The paw volume was measured immediately before the injection and at hourly intervals thereafter using a hydroplethysmometer (model 7150, Ugo Basile, Italy). The results were expressed either as the increase in paw volume (ml) calculated by subtracting the basal volume or by calculating the area under the time-course curve (AUC; ml h) for each group.\nThe anti-inflammatory activity of the conjugates was tested versus Ibuprofen, as a reference, on carrageenan-induced edema at different time intervals."}, "[2]": {"test_system": "TNBS-induced ulcerative colitis", "assay": "TNBS-induced colitis (ulcerative colitis) in rats", "format": "in vivo", "protocol": "Exemplary conjugates were tested for the effect on inflammatory bowel disease IBD (ulcerative colitis) in rats.\nBriefly, ulcerative colitis was induced by tri-nitrobenzene sulfunic acid (TNBS) as described in the literature. Rats were divided into 4 groups, (−) sham (healthy), (+) control ulcerative colitis (UC, not treated), UC treated with the tested conjugate (25 mg/kg), and UC treated with 5-amino salicylic acid (5-ASA 25 mg/kg). The tested conjugate and 5-ASA were administered rectally during all the period of the experiment. At the end of the experiment animals were sacrificed and the colon was isolated to test the severity of the inflammation. The severity of the inflammation was tested by measurement of the myeloperoxidase activity (MPO activity) in the inflamed area of the colon."}, "[3]": {"test_system": "collagen induced arthritis", "assay": "Collagen induced arthritis (CIA), PGE2 production and TNFα levels", "format": "in vivo, black/57 mice", "settings": "250 mg/(kg/day) orally, 21 days, compared to Ibuprofen 500 mg/(kg/day)", "protocol": "Male black/57 mice, age 8-10 weeks, were used in in vivo study of PGE2 production and TNFα levels in collagen induced arthritis (CIA) model.\nBovine CII (type II collagen CII, Sigma, St. Louis, Mo., USA) was dissolved in 0.1 M acetic acid overnight at 4° C. and was thereafter emulsified in an equal volume of complete Freund's adjuvant (Sigma). The mice were immunized intradermally at the base of the tail with 100 μl of emulsion containing 100 μg of CII. On day 21, mice were boosted intraperitoneally with 100 μg CII dissolved in phosphate buffered saline (PBS).\nThe tested conjugate or Ibuprofen (Sigma, Israel) were dissolved in 80% Cremophor EL:saline 80%:20%, respectively.\nMice were randomly selected and assigned to one of the following groups: tested conjugate (250 mg/(kg/day); n=4), Iboprofen (500 mg/ (kg/day); n=4) or vehicle (n=4). The tested conjugate and Ibuprofen were administered orally. Treatment was given daily for a period of 21 days.\nJoint tissues were prepared as previously described for measuring the production of PGE2 and cytokines. […] PGE2 concentration was measured with a commercial radio immunoassay (RIA) kit (Amersham, UK) according to the manufacturer's instructions. […] Results were expressed as pg/ml of serum or supernatant from joint homogenate."}, "[4]": {"test_system": "rat QT and QTc intervals", "assay": "Cardio toxicity: QT prolongation, ECG in anesthetized rats", "format": "in vivo", "text": "The QT interval (time from beginning of the QRS complex and to the end of the T wave) of the ECG is a measure of the duration of ventricular depolarization and repolarization. When ventricular repolarization is delayed and the QT interval is prolonged, there is an increased risk of ventricular tachyarrhythmia, including torsade de points (potentially fatal polymorphic ventricular tachycardia). As the QT interval has an inverse relationship to heart rate, the measured QT intervals are generally corrected for heart rate in order to determine whether they are prolonged relative to the baseline.\nThe initial evaluation of cardiac safety by ECG measurements focuses on QTc duration of MWL001 50 mg/ml concentration.\nMale Sprague-Dawley rats (280-300 g of weight) were used for electrocardiographic measurements at basal conditions as well as medicated with QND and MWL. […] Electrocardiograms were recorded using disk electrodes fitted subcutaneously near the right and left axial regions and at the xiphoid cartilage and secured by surgical clips for standard Lead II recording. […] All of the data was recorded (AdInstruments PowerLab 16/30, Australia) for off line analysis.\nHeart rate (RR interval), QT interval and QTc (corrected QT interval) were calculated by ECG analysis module in the LabChart 7.2.1 software and manually screened by trained technicians. […]"}},
  "data": [
    {"smiles": "CCC=CCC=CCC=CCC=CCC=CCC=CCCC(=O)N1CC(O)CC1C(=O)O", "note": "(centres unmarked) [MWL001]", "values": [
      {"measurement": "anti-inflammatory effect (paw swelling volume)", "setting": "[1]", "result": "superior to Ibuprofen"},
      {"measurement": "body weight", "setting": "[2]; UC rats, throughout assay period", "result": "no decrease"},
      {"measurement": "MPO activity (severity index)", "setting": "[2]; rectal, 50 mg/kg as printed, compared to 5-ASA, inflamed colon", "result": "significant decrease"},
      {"measurement": "colon morphology and inflammation signs (images)", "setting": "[2]; ulcerated colon segment, compared to non-treated or 5-ASA treated", "result": "normal clear anatomic morphology and a significant decrease in inflammation signs"},
      {"measurement": "Prostaglandin E2 levels in the joints", "setting": "[3]", "result": "significant decrease"},
      {"measurement": "TNF-α levels", "setting": "[3]", "result": "significant decrease"},
      {"measurement": "cardiotoxic effect", "setting": "[4]; high doses, short term of 2-3 hr, compared to Quinidine", "result": "no cardiotoxic effect"},
      {"measurement": "prolongation of the QTc interval", "setting": "[4]; i.v. 50-166 mg/kg, two hr period after injection", "result": "did not result in prolongation"}
    ]}
  ]
}
